From patent US20220135941A1, “COMPOSITIONS AND METHODS FOR LONG TERM CULTURE OF HEPATOCYTES” (Peking University, priority 2019, published 2022)

What was measured:
[1] = test system: primary human hepatocytes (PHHs)
Protocol: (§1) The present study was approved by the Research Ethics Committee of China-Japan Friendship Hospital (Ethical approval No: 2009-50). PHHs were obtained from human donors. Human hepatocytes were isolated from discarded human livers. A modified two-step collagenase perfusion procedure was used to isolate primary human hepatocytes from these tissues (OOtani, et al., Nat Med., 15:701-706 (2009)). Briefly, the liver tissue was perfused with PB (perfusion buffer: 0.15 M NaCl; 5 mM KCl; 25 mM NaHCO3; 5 mM Glucose; 20 mM Hepes) to remove remaining blood cells, followed by PBE (perfusion buffer plus 1 mM EDTA) perfusion. The tissue was then perfused with PBC (perfusion buffer plus 1 mg/mL collagenase type IV, 5 mM CaCl2, Gibco). All the buffers were prewarmed to 37° C. prior to the isolation process. The hepatocytes suspension was collected and washed with Williams' Medium E (Gibco), then filtered through a 40 μm Nylon cell strainer (Falcon). The isolated hepatocytes were then seeded on collagen type I-coated (Rat tail collagen type I, Gibco) plates at a density of 2.5×10^5/cm2.
(§2) Serum-free medium used for hepatocyte culture (Null): Williams' medium E containing B27 (50×, Gibco), Glutmax (Gibco) and Pen Strep (Gibco). DMSO vehicle control: Null supplemented with nearly 0.035% DMSO. […] 24 h-Cultured hepatocytes were cultured in commercial medium HCM (Lonza).
Total RNA was isolated using the RNeasy Micro Kit (QIAGEN). RNA was converted to cDNA using First-Strand Synthesis SuperMix for qRT-PCR (Invitrogen). PCR was carried out using Power SYBR® Green PCR Master Mix (Applied Biosystems) and performed on an MX3000P Sequence Detection System (Stratagene). The data were analyzed using the delta-delta Ct method.

HBV = HBV infection of 5C-PHHs; format: cell-based; conditions: for HBV products (HBsAg, HBeAg, HBV RNA, HBV DNA, cccDNA) in infected 5C-PHHs: drug treatment of HBV infected 5C-PHHs
[2] = test system: primary human hepatocytes (PHHs); assay: PHH culture: morphology and survival; format: cell-based
Protocol: as §1, §2

[3] = test system: primary human hepatocytes (PHHs); assay: RNA-Seq global gene expression profiling of cultured PHHs; format: cell-based; conditions: hierarchical clustering
Text: Total RNA was isolated using the RNeasy Plus Mini Kit (QIAGEN). RNA sequencing libraries were constructed using the Illumina mRNA-Seq Prep Kit (Illumina). Fragmented and randomly primed 150 bp paired-end libraries were sequenced using Illumina HiSeq 4000. Software and algorithms used for transcriptome analysis are including Cutadapt 1.16 (http://cutadapt.readthedocs.io/en/stable/guide.html), Salmon 0.8.2 (https://combinelab. github.io/salmon/), and R 3.5.0 (https://www.r-project.org). The expression profiles of HepG2, F-PHHs-3 and F-PHHs-4 were downloaded as raw data. The expression profiles of PHH 0d, hiPSC-Hep rep1, hiPSC-Hep rep2, hiPSC-Hep rep3 and hiPSC-Hep rep4 (Gordillo, et al., Development, 142:2094-2108 (2015)) were downloaded as raw sequencing reads from GEO database (GSM2817112, GSM2753376, GSM2753377, GSM2753378, GSM2753379). To compare gene expression profile between paired-end and single end libraries, we used the read1 from our generated sequencing paired-end reads. The read1 and the downloaded single-end read were trimmed to the same 40 bp length by using Cut adapt. The expression values for each sample were quantified by Salmon. Unsupervised hierarchical clustering of RNA-Seq data was generated by hclust package in R.

HCV Jc1G = assay: HCV infection of 5C-PHHs; format: cell-based; conditions: Gluc reporter and intracellular HCV RNA
Protocol: The Huh7.5 cell line was kindly provided by Professor Charles Rice and was routinely maintained in Dulbecco modified medium supplemented with 10% fetal bovine serum (Biological industries), 25 mM HEPES (Gibco) and Non-Essential Amino Acid (Gibco). For generating the cell cultured HCV, the plasmid encoding HCV Jc1FLAG2 (p7-nsGluc2A) (Jc1G in the text) was first linearized by XbaI digestion, and used as template for in-vitro-transcription by using MEGAscript (Invitrogen). HCVcc was generated as described previously by electroporation of the in-vitro-transcribed Jc1G RNA into Huh7.5 cells. Virus containing supernatants were harvested each day after 3 days post electroporation' and up to 7 days post electroporation. Supernatants were combined and the virus was concentrated by centrifugation using Amicon® Ultra-15 (100K) Centrifugal Filter Devices (Millipore) at 5000 g for 30 min at 4° C. The buffer was exchanged into PBS by repeated centrifugation with Amicon® Ultra-15. […]
For quantification of intracellular HCV RNA, cells were lysed in Trizol reagent (Invitrogen). […] The relative RNA levels were calculated using the 2-ΔΔCt method. […]
For quantification of luciferase activity, supernatants from each well were taken and mixed with equal volume of 2×passive lysis buffer (Promega). Luciferase activity was measured with Renilla luciferase substrate (Promega) according to manufacturer's protocol.

[4] = test system: interferon-stimulated genes (ISGs); assay: ISG expression in long-term cultured 5C-PHHs; format: cell-based, human

Compound: C[C@H](NC(=O)Cc1cc(F)cc(F)c1)C(=O)N[C@H](C(=O)OC(C)(C)C)c1ccccc1 [DAPT]
- expression of EMT marker genes (COL1A1; Thy1; VIM) ([1]; added to SB43 and FSK combination): further blocked
- expression of mesenchymal marker gene COL1A1 ([1]; combined with SB43 and FSK, day 14, normalized to FSK+SB43): decreased

Compound: Nc1ccn([C@@H]2CS[C@H](CO)O2)c(=O)n1 [LAM, lamivudine]
- HBV products (HBsAg, HBeAg, HBV RNA, HBV DNA, cccDNA) in infected 5C-PHHs (HBV): reduction of HBV products

Compound: NC(=O)c1ccc(-c2nc(-c3ccc4c(c3)OCO4)c(-c3ccccn3)[nH]2)cc1 [SB43, 4-[4-(1,3-benzodioxol-5-yl)-5-(2-pyridinyl)-1H-imidazol-2-yl]benzamide]
- expression of EMT-associated transcription factors SNAI2, TWIST1 ([1]; SB43 alone): failed to suppress
- maintaining the functional state of PHHs ([1]; blocking TGF-β signaling with SB43 alone): limited effect
- epithelial morphology with the expression of E-cadherin ([2]; SB43 treatment, after 2 weeks): maintained an epithelial morphology

Compound: CCCC(=O)Nc1ncnc2c1ncn2[C@@H]1O[C@@H]2COP(=O)([O-])O[C@H]2[C@H]1OC(=O)CCC.[Na+] [db-cAMP, Dibutyryl-cAMP, sodium salt]
- global gene expression of PHHs when FSK is substituted [3]: replaced FSK

Compound: Daclatasvir [DCV]
- HCV viral replication in 5C-PHHs (HCV Jc1G): effectively blocked

Compound: Forskolin [FSK]
- EMT marker gene expression α-smooth muscle actin (ASMA) ([1]; combined with SB43, qRT-PCR at day 14): down-regulated
- PHH survival ([2]; combined with SB43): sustained PHH survival

Compound: entecavir [ETV]
- HBV products (HBsAg, HBeAg, HBV RNA, HBV DNA, cccDNA) in infected 5C-PHHs (HBV): reduction of HBV products

Compound: interferon-α [IFN-α]
- cccDNA (HBV; cryopreserved PHHs cultured in 5C): significant reduction
- HBV products (HBsAg, HBeAg, HBV RNA, HBV DNA, cccDNA) in infected 5C-PHHs (HBV): reduction of HBV products
- interferon-stimulated genes (ISGs) expression [4]: significantly upregulated
